Common to all, as to type: physicochemical
The nature of data set [1]: Solubility assessment in solvents by aliquot addition (5-40 vol, 25° C., then heating). As for the experimental part:
Compound II-1 (40 mg) was treated with an aliquot of solvent (200 μl for 5 vol, 400 μl for 10 vol, 800 μl for 20 vol) and left to stir at 25° C. for 15 minutes. After 15 minutes, suspensions were treated with another aliquot of solvent and left to stir for the same duration again. Any solutions were removed from stirring and further solvent additions. This procedure was repeated up to 40 vol.
At 40 vol, any remaining suspensions were heated to 40° C. at a rate of 10° C./min. Samples that remained as suspensions at 40° C. were moved to the maturation chamber (RT/50° C.) for 4 days. All solutions from solvent additions were heated to 50° C. before cooling to 5° C. at a rate of 0.1° C./min, then held at 5° C. overnight. […]

Data set [2] is described as follows: Solubility measurements in SGF, FeSSIF and FaSSIF with XRPD of residual solids. The settings on record: for solubility in all media (in words): FeSSIF and FaSSIF; for Average Solubility / XRPD of residual solid / pH at 24 hrs / Solubility: Compound III-1, HCl and sulfate salts; for Solubility: single replicate. The text has this: The results from the solubility measurements in simulated gastric fluid (SGF), simulated fed state conditions in the small intestines (FeSSIF), and simulated fasting state conditions in the small intestines fluid (FaSSIF) are summarised in Table 12. The salts show reduced solubility in SGF compared to the free form.
Crystalline FB Form A, HCl Form A, and the sufate salt Form A were scaled up for solubility analysis.
HCl Form A was successfully scaled up for solubility analysis.

Data set [3] is described as follows: Storage at 40° C./75% RH for 7 days (one week), form checked by XRPD. The settings on record: for XRPD after storage at 40° C./75% RH for 7 days: one week (7 days); for Storage at 40° C./75% RH for 7 days: Compound III salts; for Storage at 40° C./75% RH for 7 days / Storage at 40° C./75% RH for one week (row head not given): form by XRPD; for Storage at 40° C./75% RH for one week (row head not given): Compound IV salts. As for the experimental part:
The suspensions were then cooled down to 5° C. at 0.1° C./min and were held at this temperature for 16 hrs. Stirring (500 rpm) was maintained throughout. Any gums that formed were maturated between 25 and 50° C. (4 hours at each temperature for 24 hrs). The suspensions were isolated by filtration under suction and air dried then analysed by XRPD. Any new patterns identified by XRPD were analysed further by NMR, TGA, DSC and stability at 40 C/75% RH for 1 week.

Several values for one entry are separate records, joined by “and”; a condition that tells them apart may be missing. Equal values may be shown once. Entries after “also recorded” stand apart in the source; their conditions may differ. Read-outs that look alike come from different tables or passages of the source.

Take `C#Cc1cc(C)c(-c2c(-c3ccc(Oc4nccc(C)n4)c(F)c3)c3c(C)ncnc3n2C)c(C)n1` [Compound IV-1, 6-(6-ethynyl-2,4-dimethylpyridin-3-yl)-5-(3-fluoro-4-((4-methylpyrimidin-2-yl)oxy)phenyl)-4,7-dimethyl-7H-pyrrolo[2,3-d]pyrimidine]: the Observation after treatment entry in data set [1] (2-Propanol, after cooling from 50° C. to 5° C.) is reported as “Clear solution”; in data set [1] (10% Water/IPA, after cooling from 50° C. to 5° C.), “Clear solution”; in data set [1] (10% Water/MeCN, after cooling from 50° C. to 5° C.), “Clear solution”; in data set [1] (Acetone, after cooling from 50° C. to 5° C.), “Clear solution”; in data set [1] (Ethanol, after cooling from 50° C. to 5° C.) it was “Clear solution”; in data set [1] (Ethyl acetate, after cooling from 50° C. to 5° C.) it was “Clear solution”. The Observation after treatment entry in data set [1] (Isopropyl acetate, after cooling from 50° C. to 5° C.) is on record as “Clear solution”; in data set [1] (MEK, after cooling from 50° C. to 5° C.), “Clear solution”; in data set [1] (Methanol, after cooling from 50° C. to 5° C.), “Clear solution”; in data set [1] (TBME, 40 vol, after maturation (RT/50° C.) 4 days), “Suspension”; in data set [1] (THF, after cooling from 50° C. to 5° C.), “Clear solution”; in data set [1] (Water, 40 vol, after maturation (RT/50° C.) 4 days), “Suspension”. Moreover, the Observation after treatment entry in data set [1] (n-Heptane, 40 vol, after maturation (RT/50° C.) 4 days) is reported as “Suspension”. Also, the “solubility in the solvents tested (in words)” value in data set [1] (13 solvents, up to 40 vol) is “soluble in all but three of the solvents tested”. Besides, the “XRPD of residual solids after solubility measurement” value (“XRPD of residual solids” below) in data set [2] (all media (SGF, FeSSIF, FaSSIF)) is recorded as “remained unchanged”. For the same compound, the “solubility in FaSSIF (in words)” value in data set [2] (simulated fasting state intestinal fluid) is listed as “lowest solubility”.
On to `C#Cc1cc(C)c(-c2c(-c3ccc(Oc4nccc(C)n4)c(F)c3)c3c(C)ncnc3n2C)c(C)n1.CS(=O)(=O)O` [Compound IV-4], for which the “XRPD after storage at 40° C./75% RH for 7 days” value in data set [3] is reported as “lose crystallinity”.
In the case of `C=C(C)C(=O)Nc1ccc(-c2c(C3=CC[C@H](C(=O)N4CCCC4)CC3)c3c(N)ncnc3n2C)c(C)c1.Cc1ccc(S(=O)(=O)O)cc1` [Compound II-4], the “XRPD after storage at 40° C./75% RH for 7 days” value in data set [3] (listed as Compound II pTSA Form A) is given as “XRPD unchanged”; in data set [3] (listed as Compound II pTSA Form B) it was “conversion to pTSA Form A; also recorded: Converted to pTSA”; in data set [3] (listed as Compound II pTSA Form C) it was “conversion to pTSA Form A; also recorded: Converted to pTSA”; in data set [3] (listed as Compound II-1 tosylate salt) it was “no change”. Further, the “solubility in FaSSIF (in words)” value in data set [2] is “highest solubility”.
In the case of `C#Cc1cc(OC)c(-c2c(-c3ccc(Oc4nccc(C)n4)c(F)c3)c3c(C)ncnc3n2C)cn1.O=C(O)C(O)C(O)C(=O)O` [Compound III-6], in data set [3], the “XRPD after storage at 40° C./75% RH for 7 days” value is “No change in form”.
Consider `Br.C#Cc1cc(OC)c(-c2c(-c3ccc(Oc4nccc(C)n4)c(F)c3)c3c(C)ncnc3n2C)cn1` [Compound III-3], for which the “XRPD after storage at 40° C./75% RH for 7 days” value in data set [3] was “change form”.
As for `C#Cc1cc(OC)c(-c2c(-c3ccc(Oc4nccc(C)n4)c(F)c3)c3c(C)ncnc3n2C)cn1.Cl` [Compound III-2], the “XRPD after storage at 40° C./75% RH for 7 days” value in data set [3] (listed as Compound III HCl Form A) was “converting to HCl Form B”; in data set [3] (listed as Compound III HCl Form B), “large reduction in crystallinity”; in data set [3] (listed as Compound III HCl Form D), “no change in form”; in data set [3] (listed as Compound III HCl Patterns 3 and 5) it was “no change in form”; in data set [3] (listed as Compound III-1 chloride salt) it was “change form”. Besides, the “XRPD of residual solids” value in data set [2] (FaSSIF) was “new form”. For the same compound, in data set [2] (simulated fed state intestinal fluid), the “solubility in FeSSIF (in words)” value was “lower solubility than the free form”.
With `C#Cc1cc(OC)c(-c2c(-c3ccc(Oc4nccc(C)n4)c(F)c3)c3c(C)ncnc3n2C)cn1.O=C(O)C(O)C(O)C(=O)O` [TAR Form A], the “Storage at 40° C./75% RH for 7 days” value in data set [3] is on record as “No change”.
Take `Br.C#Cc1cc(OC)c(-c2c(-c3ccc(Oc4nccc(C)n4)c(F)c3)c3c(C)ncnc3n2C)cn1` [HBr Form A]: the “Storage at 40° C./75% RH for 7 days” value in data set [3] was “Change in form -”.
As for `C=C(C)C(=O)Nc1ccc(-c2c(C3=CC[C@H](C(=O)N4CCCC4)CC3)c3c(N)ncnc3n2C)c(C)c1.Cl` [Compound II-2], in data set [3], the “XRPD after storage at 40° C./75% RH for 7 days” value was “no change”.
Regarding `C#Cc1cc(C)c(-c2c(-c3ccc(Oc4nccc(C)n4)c(F)c3)c3c(C)ncnc3n2C)c(C)n1.Cl` [HC1 Form A], the “Storage at 40° C./75% RH for one week (row head not given)” value in data set [3] is “Reduced crystallinity -”.
Same read-out and setting: in the case of `C#Cc1cc(C)c(-c2c(-c3ccc(Oc4nccc(C)n4)c(F)c3)c3c(C)ncnc3n2C)c(C)n1.O=S(=O)(O)c1ccccc1` [BSA Form A] it was “Change in form -”.
For `C#Cc1cc(C)c(-c2c(-c3ccc(Oc4nccc(C)n4)c(F)c3)c3c(C)ncnc3n2C)c(C)n1.Cl` [Compound IV-2], the “XRPD after storage at 40° C./75% RH for 7 days” value in data set [3] is recorded as “no change to form”. Moreover, the “XRPD of residual solids” value in data set [2] (FaSSIF) and in data set [2] (FeSSIF) was “converted to free form Form A” each time. The “solubility in all media (in words)” value in data set [2] (SGF) is “more soluble than the tosylate salt”. Further, in data set [2] (simulated gastric fluid), the “solubility in SGF (in words)” value was “completely dissolved”.
For `C#Cc1cc(C)c(-c2c(-c3ccc(Oc4nccc(C)n4)c(F)c3)c3c(C)ncnc3n2C)c(C)n1.O=S(=O)(O)c1ccccc1` [Compound IV-5], the “XRPD after storage at 40° C./75% RH for 7 days” value in data set [3] is recorded as “change form”.
With `C=C(C)C(=O)Nc1ccc(-c2c(C3=CC[C@H](C(=O)N4CCCC4)CC3)c3c(N)ncnc3n2C)c(C)c1.O=C(O)/C=C/C(=O)O` [Compound II-7], the “XRPD after storage at 40° C./75% RH for 7 days” value in data set [3] is “no change”.
Consider `C#Cc1cc(C)c(-c2c(-c3ccc(Oc4nccc(C)n4)c(F)c3)c3c(C)ncnc3n2C)c(C)n1.Cc1ccc(S(=O)(=O)O)cc1` [pTSA Form A], for which the “Storage at 40° C./75% RH for one week (row head not given)” value in data set [3] is “Change in form -”.
Consider `C=C(C)C(=O)Nc1ccc(-c2c(C3=CC[C@H](C(=O)N4CCCC4)CC3)c3c(N)ncnc3n2C)c(C)c1.O=S(=O)(O)c1ccccc1` [Compound II-6], for which the “XRPD after storage at 40° C./75% RH for 7 days” value in data set [3] is given as “no change”. In addition, the “solubility in all media (in words)” value in data set [2] (SGF) is listed as “low solubility”.
Take `C#Cc1cc(C)c(-c2c(-c3ccc(Oc4nccc(C)n4)c(F)c3)c3c(C)ncnc3n2C)c(C)n1.Cc1ccc(S(=O)(=O)O)cc1` [Compound IV-3]: the entries for the “XRPD after storage at 40° C./75% RH for 7 days” value in data set [3] (listed as Compound IV pTSA Form A) and in data set [3] (listed as Compound IV-1 tosylate salt) were “pTSA Form B” and “change form”, respectively. Also, the “XRPD of residual solids” value in data set [2] (FaSSIF) is reported as “remained unchanged”; in data set [2] (FeSSIF), “too poorly crystalline to assign”; in data set [2] (SGF), “remained unchanged”.
As to `Br.C=C(C)C(=O)Nc1ccc(-c2c(C3=CC[C@H](C(=O)N4CCCC4)CC3)c3c(N)ncnc3n2C)c(C)c1` [Compound II-3], in data set [3], the “XRPD after storage at 40° C./75% RH for 7 days” value is “convert to an amorphous form”.
Take `C#Cc1cc(OC)c(-c2c(-c3ccc(Oc4nccc(C)n4)c(F)c3)c3c(C)ncnc3n2C)cn1.CS(=O)(=O)O` [Compound III-5]: in data set [3], the “XRPD after storage at 40° C./75% RH for 7 days” value is given as “lose crystallinity”.
By Solubility is commonly meant the dissolved amount per volume that the medium holds. Consider `C#Cc1cc(OC)c(-c2c(-c3ccc(Oc4nccc(C)n4)c(F)c3)c3c(C)ncnc3n2C)cn1.O=S(=O)(O)O` [SO4 Form A], for which, in data set [2] (FaSSIF), the “Average Solubility” value was determined as 1950 µg/mL; the “XRPD of residual solid” value is “Poorly crystalline”; the “pH at 24 hrs” value is 2.6 and 2.7; the Solubility was 2000 µg/mL and 1900 µg/mL. In addition, in data set [2] (FeSSIF), the “Average Solubility” value was 230 µg/mL; the “XRPD of residual solid” value was “FB Form C”; the “pH at 24 hrs” value stood at 4.4; the Solubility was 240 µg/mL and 220 µg/mL. For the same compound, in data set [2] (SGF), the “Average Solubility” value is above 10500 µg/mL; the “pH at 24 hrs” value stood at 1.7; the Solubility was >10200 µg/mL and >10700 µg/mL.

The values are drawn from patent publication US12152034B2, “FGFR inhibitors and methods of making and using the same” (Relay Therapeutics, Inc., priority 2020, dated 2024).
